Drawing on ChEMBL document CHEMBL4419178, “Yap1 inhibitors that target the interaction of yap1 with oct4” (2018), this text covers inhibition and Activity for three compounds.

Data set [1] deals with Transcriptional coactivator YAP1 (Homo sapiens) (UniProt P46937). The data set can be described thus: Inhibition of YAP1 in human A549 cells assessed as reduction in Sox2 protein expression at 10 uM incubated for 72 hrs by Western blot analysis. It is filed as cell-based. A general note: In western blotting, separated proteins are transferred to a membrane and probed.
The target is the same in data set [2]. Briefly: Inhibition of YAP1 in human A549 cells assessed as reduction in PDK2 protein expression at 10 uM incubated for 72 hrs by Western blot analysis. Format: cell-based.
Data set [3] concerns NCI-H1703. The data set can be described thus: Inhibition of adherence-independent cell growth in human NCI-H1703 cells at 10 uM incubated for 33 days. It is filed as functional, cell-based.
In data set [4] the target is Transcriptional coactivator YAP1 (Homo sapiens) (UniProt P46937). The data set can be described thus: Inhibition of YAP1 in human NCI-H1650 cells assessed as reduction in PDK2 protein expression at 10 uM incubated for 72 hrs by Western blot analysis. Format: cell-based.
The target is the same in data set [5]. The data set can be described thus: Inhibition of YAP1 in human NCI-H1650 cells assessed as reduction in c-Myc protein expression at 10 uM incubated for 72 hrs by Western blot analysis. It is filed as cell-based.
The target is the same in data set [6]. Briefly: Inhibition of YAP1 in human NCI-H1650 cells assessed as reduction in Sox2 protein expression at 10 uM incubated for 72 hrs by Western blot analysis. Format: cell-based.
Data set [7] relates to NCI-H1650. The data set can be described thus: Inhibition of adherence-independent cell growth in human NCI-H1650 cells at 5 uM incubated for 33 days. It is filed as functional, cell-based.
For data set [8], the system named is NCI-H1703. The data set can be described thus: Inhibition of adherence-independent cell growth in human NCI-H1703 cells at 5 uM incubated for 33 days. Format: functional, cell-based.
The target in data set [9] is Transcriptional coactivator YAP1 (Homo sapiens) (UniProt P46937). Briefly: Inhibition of YAP1 in human A549 cells assessed as reduction in c-Myc protein expression at 10 uM incubated for 72 hrs by Western blot analysis. Format: cell-based.
Data set [10] concerns NCI-H1650. Briefly: Inhibition of adherence-independent cell growth in human NCI-H1650 cells at 10 uM incubated for 33 days. It is filed as functional, cell-based.
The subject of data set [11] is NCI-H1650. The data set can be described thus: Inhibition of YAP1/TEAD2 interaction in human NCI-H1650 cells assessed as suppression of CTGF mRNA expression at 5 to 10 uM incubated for 72 hrs by RT-PCR method. It is filed as cell-based.
The target in data set [12] is Transcriptional coactivator YAP1 (Homo sapiens) (UniProt P46937). Briefly: Inhibition of YAP1 in human NCI-H146 cells assessed as suppression of PDK2 mRNA expression at 5 to 10 uM incubated for 72 hrs by RT-PCR method. Format: cell-based.
For data set [13] the target is unchanged. Briefly: Inhibition of YAP1 in human NCI-H146 cells assessed as suppression of HK2 mRNA expression at 5 to 10 uM incubated for 72 hrs by RT-PCR method. Format: cell-based.
Data set [14] relates to NCI-H1650. Briefly: Effect on expression of Oct4 mRNA expression in human NCI-H1650 cells at 5 to 10 uM incubated for 72 hrs by RT-PCR method. Format: cell-based. The following applies: nci-h1650, 72 h.
The target of data set [15] is Transcriptional coactivator YAP1 (Homo sapiens) (UniProt P46937). Briefly: Inhibition of YAP1 in human NCI-H1703 cells assessed as suppression of fibronectin mRNA expression at 5 to 10 uM incubated for 72 hrs by RT-PCR method. It is filed as cell-based.
The target is the same in data set [16]. Briefly: Inhibition of YAP1 in human NCI-H1703 cells assessed as suppression of HK2 mRNA expression at 5 to 10 uM incubated for 72 hrs by RT-PCR method. Format: cell-based.
For data set [17] the target is unchanged. The data set can be described thus: Inhibition of YAP1 in human NCI-H1650 cells assessed as suppression of HK2 mRNA expression at 5 to 10 uM incubated for 72 hrs by RT-PCR method. It is filed as cell-based.
For data set [18], the system named is NCI-H1975. Briefly: Cytotoxicity in gefitinib and erlotinib resistant human NCI-H1975 cells assessed as reduction in cell viability at 1 to 10 uM incubated for 72 hrs by MTT assay. Format: functional, cell-based.
Data set [19] has as its system NCI-H1650. The data set can be described thus: Effect on expression of Nanog mRNA expression in human NCI-H1650 cells at 5 to 10 uM incubated for 72 hrs by RT-PCR method. It is filed as cell-based. The following applies: nci-h1650, 72 h.
In data set [20] the target is Transcriptional coactivator YAP1 (Homo sapiens) (UniProt P46937). Briefly: Inhibition of YAP1 in human NCI-H146 cells assessed as suppression of Sox2 mRNA expression at 5 to 10 uM incubated for 72 hrs by RT-PCR method. It is filed as cell-based.
For data set [21] the target is unchanged. Briefly: Inhibition of YAP1 in human NCI-H1650 cells assessed as suppression of PD-L1 mRNA expression at 5 to 10 uM incubated for 72 hrs by RT-PCR method. It is filed as cell-based.
The test system of data set [22] is NCI-H1703. The data set can be described thus: Effect on expression of Oct4 mRNA expression in human NCI-H1703 cells at 5 to 10 uM incubated for 72 hrs by RT-PCR method. Format: cell-based. The following applies: nci-h1703, 72 h.
The target in data set [23] is Transcriptional coactivator YAP1 (Homo sapiens) (UniProt P46937). The data set can be described thus: Inhibition of YAP1 in human NCI-H1650 cells assessed as suppression of vimentin mRNA expression at 5 to 10 uM incubated for 72 hrs by RT-PCR method. Format: cell-based.
The test system of data set [24] is NCI-H146. Briefly: Inhibition of self-renewal capacity in methotrexate insensitive stem-like side-population cells of human NCI-H146 cells assessed as reduction in number of spheres at 2 uM incubated for 3 days after 7 days methotrexate exposure by sphere formation assay. It is filed as functional.
Data set [25] deals with Transcriptional coactivator YAP1 (Homo sapiens) (UniProt P46937). Briefly: Inhibition of YAP1 in human NCI-H1650 cells assessed as suppression of Sox2 mRNA expression at 5 to 10 uM incubated for 72 hrs by RT-PCR method. It is filed as cell-based.
The subject of data set [26] is NCI-H146. The data set can be described thus: Effect on expression of Oct4 mRNA expression in human NCI-H146 cells at 5 to 10 uM incubated for 72 hrs by RT-PCR method. Format: cell-based. The following applies: nci-h146, 72 h.
For data set [27], the target named is Transcriptional coactivator YAP1 (Homo sapiens) (UniProt P46937). The data set can be described thus: Inhibition of YAP1 in human NCI-H1703 cells assessed as suppression of PDK2 mRNA expression at 5 to 10 uM incubated for 72 hrs by RT-PCR method. It is filed as cell-based.
The test system of data set [28] is NCI-H1703. Briefly: Inhibition of YAP1/TEAD2 interaction in human NCI-H1703 cells assessed as suppression of CTGF mRNA expression at 5 to 10 uM incubated for 72 hrs by RT-PCR method. It is filed as cell-based.
For data set [29], the target named is Transcriptional coactivator YAP1 (Homo sapiens) (UniProt P46937). Briefly: Inhibition of YAP1 in human NCI-H1703 cells assessed as suppression of Sox2 mRNA expression at 5 to 10 uM incubated for 72 hrs by RT-PCR method. It is filed as cell-based.
For data set [30], the system named is NCI-H146. The data set can be described thus: Effect on expression of Nanog mRNA expression in human NCI-H146 cells at 5 to 10 uM incubated for 72 hrs by RT-PCR method. Format: cell-based. To be noted: nci-h146, 72 h.
The subject of data set [31] is NCI-H1703. The data set can be described thus: Effect on expression of Nanog mRNA expression in human NCI-H1703 cells at 5 to 10 uM incubated for 72 hrs by RT-PCR method. It is filed as cell-based. The following applies: nci-h1703, 72 h.
Data set [32] addresses Transcriptional coactivator YAP1 (Homo sapiens) (UniProt P46937). The data set can be described thus: Inhibition of YAP1 in human NCI-H1703 cells assessed as suppression of vimentin mRNA expression at 5 to 10 uM incubated for 72 hrs by RT-PCR method. It is filed as cell-based.
Data set [33] shares this target. Briefly: Inhibition of YAP1 in human NCI-H1650 cells assessed as suppression of PDK2 mRNA expression at 5 to 10 uM incubated for 72 hrs by RT-PCR method. Format: cell-based.
Data set [34] has the same target. Briefly: Inhibition of YAP1 in human NCI-H1703 cells assessed as suppression of PD-L1 mRNA expression at 5 to 10 uM incubated for 72 hrs by RT-PCR method. It is filed as cell-based.
Data set [35] shares this target. The data set can be described thus: Inhibition of YAP1 in human NCI-H1650 cells assessed as suppression of fibronectin mRNA expression at 5 to 10 uM incubated for 72 hrs by RT-PCR method. Format: cell-based.

Activity calls are given as the source filed them. The rule behind the calls is not given here.

Transcriptional coactivator YAP1 (Homo sapiens), sequence (P46937 whole entry): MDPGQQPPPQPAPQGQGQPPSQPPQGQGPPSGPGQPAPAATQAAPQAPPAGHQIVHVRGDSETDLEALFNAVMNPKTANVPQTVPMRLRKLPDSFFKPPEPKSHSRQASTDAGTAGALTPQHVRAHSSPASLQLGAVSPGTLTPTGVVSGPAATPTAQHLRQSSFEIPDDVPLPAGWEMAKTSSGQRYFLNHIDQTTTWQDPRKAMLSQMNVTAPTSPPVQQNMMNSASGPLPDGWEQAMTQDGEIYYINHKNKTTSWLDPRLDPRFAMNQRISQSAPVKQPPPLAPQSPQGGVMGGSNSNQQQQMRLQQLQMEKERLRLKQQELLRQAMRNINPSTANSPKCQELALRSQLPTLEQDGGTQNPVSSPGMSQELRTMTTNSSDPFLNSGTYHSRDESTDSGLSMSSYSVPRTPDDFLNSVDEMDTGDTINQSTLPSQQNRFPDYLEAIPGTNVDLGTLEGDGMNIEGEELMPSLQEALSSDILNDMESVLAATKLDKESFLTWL

`COC(=O)[C@H](Cc1ccc(OCc2ccccc2)cc1)NC(=O)CC1CCN(C(=O)c2ccc(NC(=O)OC(C)(C)C)cc2)CC1`: the inhibition entry in [1], in data set [2], in data set [3], in [4], in data set [5] and in data set [6] was “Active” throughout. Besides, the inhibition entry in [7], in [8], in [9] and in data set [10] was “Active” each time.
Take `O=[N+]([O-])c1nc[nH]c1/C=C/c1cccc(F)c1`: the inhibition entry in [11] and in data set [28] was “inactive” throughout. Also, the inhibition entry in data set [12], in [13], in data set [3], in data set [15], in data set [16] and in data set [17] was “Active” each time. For the same compound, the inhibition entry in [20], in data set [7], in [21], in [23], in data set [8] and in data set [24] was “Active” in each case. In addition, the inhibition result in [25], in [27], in data set [29], in [32], in data set [10] and in data set [33] was “Active” throughout. Further, the inhibition entry in data set [34] and in data set [35] was “Active” throughout. In addition, the Activity result in [14], in data set [19], in data set [22], in data set [26], in data set [30] and in [31] was “Non-Toxic” each time. In addition, the outcome in [18] was Active.
For the compound `COC(=O)[C@H](Cc1ccc(OCc2ccccc2)cc1)NC(=O)CC1CCN(C(=O)Cc2ccc(NC(=O)OC(C)(C)C)cc2)CC1`, the inhibition result in data set [1], in data set [2], in data set [4], in data set [5], in [6] and in data set [9] was “Active” in each case.
